Results reported in PMC5349917, “Octreotide-periplocymarin conjugate prodrug for improving targetability and anti-tumor efficiency: synthesis, in vitro and in vivo evaluation” (Oncotarget, 2016).
Several values for one entry are separate records, joined by “and”; a condition that tells them apart may be missing. Equal values may be shown once. Read-outs that look alike come from different tables or passages of the source.

Experiments:
[1] = system: MCF-7 breast cancer cells; assay: MTT growth inhibition assay, MCF-7 cells; format: cell-based, human
Procedure: (§1) To test the antitumor activities of the synthesized compounds, we evaluated antiproliferative activities of these compounds against human cancer cell lines (Breast cancer cells, MCF-7; Hepatoma cells, HepG2) and human normal cell line (Liver cells, L-02), using the MTT assay as reported in previous studies. Both cell lines were obtained from the Cell Bank of Academy of Science (Shanghai, China).
(§2) After incubation, 20 μL of MTT (5 mg/mL in pH 7.4 PBS) was added to each well, and the plates further incubated at 37°C for 4 h. The medium was then replaced with 100 μL DMSO. The optical density was measured by Microplate Reader (Thermo Electron Corporation) at 595 nm.
(§3) Statistical significance of differences between treatment groups in the biodistribution and anti-tumor effect were assessed using an unpaired Student’s t-test. A p-value of less than 0.05 was considered significant.

[2] = system: HepG2 hepatoma cells; assay: MTT growth inhibition assay, HepG2 cells; format: cell-based, human
Procedure: as §1, §2, §3

[3] = system: L-02 cells; assay: cells; format: cell-based, human
Procedure: as §1
(§4) In brief, the cells were seeded into a 96-well plate at a density of 2.5 × 10^4 cells/well and incubated with OCT modified PPMs containing various concentrations (ranging from 0.001 to 50.0 μM) for 72 h. After incubation, 20 μL of MTT (5 mg/mL in pH 7.4 PBS) was added to each well, and the plates further incubated at 37°C for 4 h. The medium was then replaced with 100 μL DMSO. The optical density was measured by Microplate Reader (Thermo Electron Corporation) at 595 nm. The cell inhibition rate (IR) was calculated as follows: IR (%) = 1−A/A1×100%, where A refers to the average absorbance intensity of treated group and A1 refers to average absorbance intensity of untreated control group (the vehicle control group).
as §3, with “significant. 50% inhibiting concentration (IC50) of the sample was calculated with the aid of Curve-Expert software (version 1.3; Daniel G. Hyams, Hixson, TN, USA).” for “significant.”

[4] = system: MFC murine gastric carcinoma cells; assay: In vitro cytotoxicity on MFC cells; format: cell-based, mouse; conditions: 72 h of incubation
Procedure: as §4
as §3, with “significant. 50% inhibiting concentration (IC50) of the sample was calculated with the aid of Curve-Expert software (version 1.3; Daniel G. Hyams, Hixson, TN, USA).” for “significant.”

[5] = Tissue distribution in H22 cell tumor bearing mice; format: in vivo, mouse; conditions: for AUC0–t Heart / AUC0–t Kidney / AUC0–t Liver / AUC0–t Lung / AUC0–t Plasma / AUC0–t Spleen / AUC0–t Tumor: level of PPM, 4 mg/kg (PPM or equivalent), H22 tumor-bearing mice, 0-4 h
Procedure: Male Kunming strain mice (KM, 18–22 g) were purchased from Qinglongshan, Experimental Animal Center (ZhenJiang, China). Animal experiments were conducted under principles of good laboratory animal care, and approved by the Ethical Committee for Laboratory Animals Care and Use of Jiangsu University. Mouse […] (H22) cells were purchased from the Cell Bank of Academy of Science (Shanghai, China).
Approximately 1 × 10^7 H22 cells suspended in PBS (pH 7.4) were inoculated subcutaneously into the right hind leg. When the tumor volume reached 1000 mm^3 (around 7 days), mice were intravenously injected with PPM (at a dose of 4 mg/kg) or its equivalent OCT(Phe)-S-PPM via the tail vein (n = 5). At indicated time periods (0.16, 0.50, 1, 2, 3 and 4 h) after injection, blood samples were collected and mice were then sacrificed by cervical dislocation to obtain the heart, liver, spleen, lung, kidney and tumor tissues. All the samples were then washed with ice-cold saline to remove the excess fluid, weighed and stored at –20°C. The thawed tissue was homogenized in 0.9% sodium chloride solution to obtain 0.2 g/mL tissues homogenate. This was followed by the addition of bufalin (50 μl, 5 μg/ml) to the tissues (0.2 ml) with uniform mixing. Ethyl acetate (1.2 ml) was then added to the resulting mixture and thoroughly mixed for 5 min. The total supernatant or organic layer was separated by centrifugation at 3000 rpm for 10 min and transferred to a clean tube. The supernatant was dried with nitrogen at 40°C on water bath to obtain the residue, which was later reconstituted in a 0.2 mL of mobile phase solution. After centrifugation at 20,000 rpm for 10 min, the supernatant was analyzed by HPLC. The mobile phase consisted of acetonitrile and water (38:62, v/v, pH = 3.0, adjusted by H3PO4). The flow rate was 1.0 mL·min^-1 and the detection wavelength was 220 nm. Other conditions included injection volume (20 μl), column temperature (25°C) and detection sensitivity (0.02 AUFS). The retention time of PPM and Bufalin was about 7.2 and 10.8 min, respectively. The calibration curve was A = 0.9958C-0.0299 (A represented the peak area ratio of PPM and Bufalin, while C was the concentration of PPM) and was linear in the range of 0.05–10 μg/mL with a correlation coefficient of R = 0.9995.

[6] = system: H22 tumor; assay: Anti-tumor efficacy in H22 tumor-bearing mice; format: in vivo, mouse; conditions: H22 tumor Kunming mice, 5 times; for final tumor weight: control 0.876 ± 0.154 g
Procedure: (§5) Treatment was initiated when the tumor diameter reached about 0.5 cm (around 3 days). Mice were randomly assigned to four groups (n = 6) namely the control, PPM, OCT and OCT(Phe)-S-PPM groups. Treatment were administered via tail vein at a dose of 4 mg/kg every other day during the experimental period for 5 times. The control group received corresponding amounts of blank injection (ethanol/Cremophor EL, v/v, 1/1, diluted 20 times with normal saline before the injection). Their weights were measured daily and tumor size was measured (major and minor axis) with a vernier caliper thereafter and at the end of the experiment. Tumor volumes were calculated using the formula: a^2×b×0.52, where a and b refer to the longest and shortest diameter, respectively. Tumor tissues were removed from the sacrificed mice and weighed to calculate the tumor inhibition rate (TIR (%) = (1-Wt/Wc) × 100%, where Wt and Wc are the mean tumor weights of the treated groups and the negative control group, respectively. Moreover, the heart, liver and tumor were rinsed with normal saline, fixed in 10% formalin, and then embedded in paraffin blocks for later slicing and staining with hematoxylin and eosin (H&E). Finally, the sections were observed under a microscope for histopathological evaluations

[7] = Toxicity in H22 tumor-bearing mice (serum AST, ALT, ALP, body weight, heart and liver histopathology); format: in vivo, mouse; conditions: for pathological images of heart sections / pathological images of liver sections: HE staining, after treatment for ten days; for ALT / AST / ALP: serum, mice sacrificed 24 h after the last administration; for ALT: control 26.86 ± 6.44; for AST: control 50.55 ± 8.82; for ALP: control 112.06 ± 14.29
Procedure: as §5

[8] = system: PC3, U937, HCT-8, Bel-7402, BGC823, A549 and A2780 cell lines; parameters: method as in PMID 17366373; conditions: PC3, U937, HCT-8, Bel-7402, BGC823, A549 and A2780 cell lines in vitro; read-out: IC50 values, inhibition of proliferation; cited from earlier work
[9] = cited from earlier work
[10] = MTT, 72 h of incubation, read-out: IC50 MCF-7

Row | Compound | IC50 [1, 10] | AUC0–t Heart ([5]; i.v.) | AUC0–t Kidney ([5]; i.v.) | AUC0–t Liver ([5]; i.v.) | AUC0–t Lung ([5]; i.v.) | AUC0–t Plasma ([5]; i.v.) | AUC0–t Spleen ([5]; i.v.) | AUC0–t Tumor ([5]; i.v., 4 mg/kg) | final tumor weight ([6]; 4 mg/kg i.v. every other day) | pathological images of heart sections [7] | pathological images of liver sections [7] | ALT [7] | AST [7] | ALP [7] | further results
1 | CO[C@H]1C[C@H](O[C@H]2CC[C@]3(C)[C@H]4CC[C@]5(C)[C@@H](C6=CC(=O)OC6)CC[C@]5(O)[C@@H]4CC[C@]3(O)C2)O[C@H](C)[C@H]1O [PPM, periplocymarin] | 35.9 nM | 1.692 ± 0.283 µg·h/g | 1.773 ± 0.393 µg·h/g | 1.967 ± 0.321 µg·h/g | 0.457 ± 0.092 µg·h/g | 0.812 ± 0.143 µg·h/g | 0.257 ± 0.086 µg·h/g | 0.614 µg·h/g and 0.614 ± 0.128 µg·h/g | 0.423 ± 0.087 g | irregularly arranged myocardial cells and slightly lymphocyte infiltration in the interstitial tissue of the myocardium | obvious soma shrinking, dissociation of hepatic cord, dilation of hepatic sinusoids and lymphocytosis | 62.43 ± 13.52 U/L | 68.21 ± 8.95 U/L | 184.23 ± 21.48 U/L | IC50 ([1]; Homo sapiens, MCF7, 72 h, MTT, 72 h of incubation, read-out: IC50 MCF-7): 35.9 nM; IC50 ([2]; Homo sapiens, HepG2, MTT, 72 h of incubation, read-out: IC50 HepG2): 138 nM; IC50 ([3]; Homo sapiens, L02, MTT, 72 h of incubation, read-out: IC50 L-02): 128 nM; IC50 ([4]; Mus musculus): 38.4 nM; Kp at 15 min ([5]; male, Kunming, mouse, heart / blood, iv, 15 min post injection, i.v. 4 mg/kg, read-out: ratio of the PPM concentration in heart and blood): 1.18; Kp at 1 h ([5]; male, Kunming, mouse, heart / blood, iv, 1 h post injection, i.v. 4 mg/kg, read-out: ratio of the PPM concentration in heart and blood): 5.21; concentration at 15 min ([5]; male, Kunming, mouse, tumor, iv, 4 mg/kg, 15 min post injection): 917 ng/g; tumor inhibition rate ([6]; 4 mg/kg i.v. every other day, from tumor weights): 51.71%; average body weight ([7]; during treatment, vs control group, P < 0.01): less than that of the control group; IC50 [8]: 20 to 290 nM
2 | Somatostatin [somatostatins] |  |  |  |  |  |  |  |  |  |  |  |  |  |  | half-life in circulation ([9]; in vivo): 1 to 3 min
3 | C[C@@H](O)[C@@H]1NC(=O)[C@H](CCCCN)NC(=O)[C@@H](Cc2c[nH]c3ccccc23)NC(=O)[C@H](Cc2ccccc2)NC(=O)[C@@H](NC(=O)[C@H](N)Cc2ccccc2)CSSC[C@@H](C(=O)N[C@H](CO)[C@@H](C)O)NC1=O [OCT, Octreotide] |  |  |  |  |  |  |  |  | 0.765 ± 0.126 g |  |  | 34.48 ± 6.28 U/L | 51.25 ± 5.2 U/L | 129.48 ± 18.54 U/L | IC50 ([1]; 72 h): > 50000 nM; IC50 ([2]; 72 h): > 50000 nM; IC50 ([3]; 72 h): > 50000 nM; plasma half-life, times more than endogenous somatostatin [9]: 30 times
4 | CO[C@H]1C[C@H](O[C@H]2CC[C@]3(C)[C@H]4CC[C@]5(C)[C@@H](C6=CC(=O)OC6)CC[C@]5(O)[C@@H]4CC[C@]3(O)C2)O[C@H](C)[C@H]1OC(=O)CCC(=O)N[C@H](Cc1ccccc1)C(=O)N[C@H]1CSSC[C@@H](C(=O)N[C@H](CO)[C@@H](C)O)NC(=O)[C@H]([C@@H](C)O)NC(=O)[C@H](CCCCN)NC(=O)[C@@H](Cc2c[nH]c3ccccc23)NC(=O)[C@H](Cc2ccccc2)NC1=O [OCT(Phe)-S-PPM] |  | 1.315 ± 0.239 µg·h/g | 1.152 ± 0.132 µg·h/g | 1.441 ± 0.202 µg·h/g | 0.839 ± 0.083 µg·h/g | 1.409 ± 0.196 µg·h/g | 0.632 ± 0.079 µg·h/g | 1.338 µg·h/g and 1.338 ± 0.195 µg·h/g | 0.287 ± 0.069 g | no evident differences from the control group | no evident differences from the control group | 23.25 ±5.76 U/L | 56.83 ± 7.34 U/L | 124.90 ± 27.23 U/L | enhancement of cytotoxicity of PPM when conjugated with Phe-OCT ([2]; HepG2, vs PPM): 1.88 fold; concentration in tumor tissue ([5]; 15 min post injection, i.v.): 0.168 µg/g; maximum concentration in tumor tissue ([5]; i.v., reached at 1 h): 0.618 µg/g; AUC0–t in plasma, fold higher than that of PPM ([5]; i.v., vs PPM): 1.73 fold; AUC0–t in tumor, fold higher than that of PPM ([5]; i.v., vs PPM): 2.17 fold; total AUC0~t of heart, fold lower than that of PPM ([5]; i.v., vs PPM, P < 0.01): 0.77 fold; total AUC0~t of liver, fold lower than that of PPM ([5]; i.v., vs PPM, P < 0.01): 0.73 fold; reduction of tumor volume compared to PPM (average) ([6]; equimolar dose of PPM 4 mg/kg, i.v. every other day): 1.56 fold
5 | C[C@]12CC[C@H](O)C[C@@]1(O)CC[C@@H]1[C@@H]2CC[C@]2(C)[C@@H](C3=CC(=O)OC3)CC[C@]12O [periplogenin] | 902 nM |  |  |  |  |  |  |  |  |  |  |  |  |  | IC50 ([2]; MTT, 72 h of incubation, read-out: IC50 HepG2): 580 nM; IC50 ([3]; MTT, 72 h of incubation, read-out: IC50 L-02): 406 nM; IC50 [4]: 509 nM
